Measured values as given in article PMC4409056, “A Maltose-Binding Protein Fusion Construct Yields a Robust Crystallography Platform for MCL1” (PLoS ONE, 2015).
Blank lines part the entries; values can stand above or below the molecule they belong to.

Experiments:
MBP-MCL1 = biological target: T1, MBP-MCL1 (Homo sapiens, UniProt Q07820, K194A/K197A/R201A); test: isothermal titration calorimetry; crystal structure […] Å (soak); format: binding
T1 construct: 6xHis-TEV tag cleaved, MBP kept; E. coli
T1 sequence (Q07820 173-321 K194A/K197A/R201A): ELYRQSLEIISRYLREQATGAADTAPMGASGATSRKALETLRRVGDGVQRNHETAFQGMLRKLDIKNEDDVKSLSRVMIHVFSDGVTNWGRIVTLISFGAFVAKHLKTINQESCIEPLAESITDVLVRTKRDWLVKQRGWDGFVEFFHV

MCL1 173–329 = biological target: T2, MCL1 173–329 (Homo sapiens, UniProt Q07820); test: isothermal titration calorimetry; format: binding
T2 construct: residues 173-329 (no N-terminal region, no transmembrane domain), E. coli, 6xHis-Smt3 tag cleaved by Ulp-1, wild type
T2 sequence (Q07820 173-329): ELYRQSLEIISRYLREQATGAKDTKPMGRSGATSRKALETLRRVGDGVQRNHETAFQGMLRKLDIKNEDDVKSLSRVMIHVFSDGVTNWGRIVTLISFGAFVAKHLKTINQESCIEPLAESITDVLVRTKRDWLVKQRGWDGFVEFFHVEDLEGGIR

[1] = biological target: T3, MBP-MCL1 (MBP, two-residue GS linker, MCL1 173–321 K194A/K197A/R201A) (human, UniProt Q07820 173-321, K194A | K197A | R201A); test: ITC; hNoxa (20–38) (400 μM or 300 μM) titrated into 25 μM MCL1 173–329 or MBP-MCL1; autoITC200, 25°C, 25 mM Hepes pH 7.4, 100 mM NaCl, 0.1 mM TCEP, 4% DMSO; n ≥ 3, averaged KD; details: both partners purified
T3 construct: two-residue linker between MBP and MCL1; MCL1, human, residues 173-321 with three alanine mutations in the disordered loop; only the 6XHis-Tev part was removed with TEV protease; Six of the seven deposited PDB entries hold this construct and one holds MCL1 173–321 without MBP; also called MBP-MCL1 fusion construct; MBP-MCL1 fusion protein; source: E. coli (Top 10 or BL21 (DE3)), purified (Ni2+ …)
T3 sequence (Q07820 other isoform, or with tags, fused parts or gaps with the stated changes): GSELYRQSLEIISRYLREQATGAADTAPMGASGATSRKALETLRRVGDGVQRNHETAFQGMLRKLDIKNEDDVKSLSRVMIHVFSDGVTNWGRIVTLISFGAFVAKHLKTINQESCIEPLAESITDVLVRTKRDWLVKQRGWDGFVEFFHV

MCL1 173–329 (human) = test: as above
MCL1 173–329 (human), sequence (Q07820 173-329): as the sequence (Q07820 173-329) above

- Kd (MBP-MCL1): 93 µM
- Kd (MCL1 173–329): 97 µM
Molecule: O=C(O)c1sc2cc(F)ccc2c1Cl [compound 4, fragment 4]

- Kd [1]: 0.19 µM
- Kd (MCL1 173–329 (human)): 0.16 µM
B1: hNoxa (20–38) (peptide, UniProt Q13794 20-38, looked up)
peptide: ELEVECATQLRRFGDKLNF
notes: Noxa, human, BH3 peptide, residues 20-38; also called BH3 peptide Noxa (20–38)
